Records with an inconclusive call do not appear. Active and inactive are the calls of the source. The rule behind the calls is not given here.
target: Zinc finger protein mex-5 (Caenorhabditis elegans) (UniProt Q9XUB2); test: MEX-5 RNA-binding inhibition confirmation – biochemical, C. elegans, fluorescence polarization, dose retest (AID 449745); details: Mex-5 / TCR-2 RNA binding;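 note: potency is for blocking Mex-5 binding to labeled TCR2 RNA like unlabeled competitor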
Sequence (Q9XUB2 whole entry, looked up): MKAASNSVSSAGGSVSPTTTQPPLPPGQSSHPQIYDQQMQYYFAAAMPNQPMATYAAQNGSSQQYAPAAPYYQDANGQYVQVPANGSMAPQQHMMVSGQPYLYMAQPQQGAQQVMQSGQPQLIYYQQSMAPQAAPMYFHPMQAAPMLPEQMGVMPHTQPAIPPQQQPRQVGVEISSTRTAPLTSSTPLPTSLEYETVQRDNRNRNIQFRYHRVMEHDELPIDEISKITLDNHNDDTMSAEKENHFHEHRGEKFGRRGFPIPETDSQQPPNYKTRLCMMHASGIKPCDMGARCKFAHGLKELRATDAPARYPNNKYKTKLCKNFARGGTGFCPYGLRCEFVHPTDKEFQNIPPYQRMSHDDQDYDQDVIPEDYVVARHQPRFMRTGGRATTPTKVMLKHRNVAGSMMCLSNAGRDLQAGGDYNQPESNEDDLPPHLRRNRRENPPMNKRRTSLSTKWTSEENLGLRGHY

Row | SMILES | AC50
1 | NS(=O)(=O)c1ccc(N=Nc2c(=O)[nH]n3c(=O)c4c([nH]c23)CCCC4)cc1 | < 0.3 µM
2 | Cn1nc([N+](=O)[O-])c(C(C#N)c2nc3ccccc3n2C)c(Cl)c1=O (configuration not stated) | 22.9 µM
3 | CC1(C)CC(=O)C2=C(C1)N=c1s/c(=C/c3ccc(F)c(F)c3)c(=O)n1C2c1ccc(F)cc1 (configuration not stated) | > 38 µM (inactive)
4 | O=C(CSc1ncn[nH]1)Nc1c(Br)cc([N+](=O)[O-])cc1Br | 14 µM
5 | Cc1cc(O)c(-c2cc(O)c(C)cc2O)cc1O | 6.21 µM
6 | CC1CCN(Cc2c(O)ccc3c2O/C(=C\c2ccco2)C3=O)CC1 | 6.87 µM
7 | O=c1[nH]c(=O)n(Cc2ccccc2)c(O)c1/C=C1\C=Nc2ccccc21 | 29.8 µM
8 | O=C(N/N=C/c1cc2c(cc1Cl)OCO2)c1ccccn1 | > 38 µM (inactive)
9 | COc1cc(CCC(=O)Nc2ccc(Cl)c(C(F)(F)F)c2)cc(OC)c1OC | > 38 µM (inactive)
10 | O=C1CS/C(=N\NC(=O)c2ccccc2)N1 | 12 µM
11 | COc1ccc(/C=C2\SC(=O)NC2=S)cc1OC | 20 µM
12 | O=C(O)c1ccccc1NS(=O)(=O)c1cccc(-n2sc3ccccc3c2=O)c1 | 7.89 µM
13 | CN1/C(=C\C=C2C(=O)NC(=O)NC2=O)C(C)(C)c2ccccc21 | > 38 µM (inactive)
14 | COc1cc(/C=C2/C(=O)NN(c3ccc(Cl)c(Cl)c3)C2=O)cc([N+](=O)[O-])c1O | 31.6 µM
15 | CC(C)OC(=O)c1c2c(n3ccccc13)C(=O)c1ccccc1C2=O | 19.1 µM
16 | Nc1ccc2nc(CN3CCOCC3)[nH]c2c1 | 34.4 µM
17 | CC(=O)OC1=C(O)C(=O)c2ccccc2C1=O | 10.3 µM
18 | CCCCn1c(O)c(N=Nc2ccccn2)c2ccccc21 | 24.2 µM
19 | Oc1sc(C=Nc2ccc(F)cc2)c2ccccc12 | 22.2 µM
20 | CCc1nnc(NS(=O)(=O)c2ccc(N=Cc3c(O)n(-c4ccc(Cl)cc4)c(=O)[nH]c3=O)cc2)s1 | > 38 µM (inactive)
21 | CCOC(=O)c1c(-c2ccc(C)o2)csc1NC(=S)NC(=O)c1cccs1 | > 38 µM (inactive)

Row | SMILES | AC50
22 | COc1ccc2cc(/C=C3\SC(=S)NC3=O)c(N3CCOCC3)nc2c1 | 24.1 µM
23 | O=C1OC(/C(=C\Nc2cc(Cl)ccc2O)[N+](=O)[O-])c2ccccc21 (configuration not stated) | 12.4 µM
24 | CCn1c(SCc2nc3sc(C(=O)O)c(C)c3c(=O)[nH]2)nc2ccccc21 | 13 µM
25 | CCOc1cc(Br)c(/C=C2/C(=O)N(C)C(=S)N2CC(=O)OC)cc1OC | > 38 µM (inactive)
26 | COc1ccc(Cn2c3ccc(OC)cc3c3nc4ccccc4nc32)cc1 | 22.9 µM
27 | Cc1nnc(N2C(=O)C(O)=C(C(=O)c3ccco3)C2c2ccc(C(C)C)cc2)s1 (configuration not stated) | 37.2 µM
28 | CCOC(=O)c1cc(C#N)c(SCC(N)=O)[nH]c1=O | > 38 µM (inactive)
29 | COC/C=C/C1=CC2=CC(=O)C(C)(OC(=O)c3cnc4ccccc4n3)C(=O)C2=CO1 (configuration not stated) | 17.4 µM
30 | CC(=O)Nc1ccc(N2C(=O)c3cccc4c(O)ccc(c34)C2=O)cc1 | 3.81 µM
31 | O=C(O)c1ccc(Cl)c2c1C1C=CCC1C(c1ccccn1)N2 (configuration not stated) | 29 µM
32 | Cc1c(N=NC2=C(O)CCCC2=O)c(=O)n(-c2ccccc2)n1C | > 38 µM (inactive)
33 | Nc1ccc2nc3c(=O)n(CCc4ccccc4)c(=O)[nH]c3nc2c1 | 3.43 µM
34 | COc1ccc(C(=O)c2c(N)sc3c2CCN(C)C3)cc1 | > 38 µM (inactive)
35 | Cc1cc[n+](-c2[nH]c(=O)sc2/C=N/N=C(\[O-])c2ccncc2)cc1 | 29.4 µM
36 | CC(=O)Nc1ccc2cc3ccc(NC(C)=O)cc3nc2c1 | 10.9 µM
37 | O=Cc1ccc2ccc3cccnc3c2n1 | 30.2 µM
38 | C/C(=N/Nc1ccc(C(=O)O)cc1)c1ccc(O)c(O)c1O | 11.1 µM
39 | Cc1cc(C)c2c3c(sc2n1)C(c1ccccc1)C(C#N)=C(N)O3 (configuration not stated) | > 38 µM (inactive)
40 | N#C/C(=C\c1cn(-c2ccccc2)nc1-c1cc2ccccc2o1)c1nc2ccccc2[nH]1 | > 38 µM (inactive)
41 | COc1ccc(/C=C/C(=O)N/C(=C\c2ccco2)C(=O)NCCc2nc3ccccc3[nH]2)cc1 | > 38 µM (inactive)
42 | COc1ccc(Cn2c(O)c(/C=N/NC(=O)c3ccccc3O)c(=O)[nH]c2=O)cc1 | 6.41 µM

Reference: PubChem BioAssay AID449745 (Broad Institute, 2010)
